The results in this text go back to patent US12466804B2 (BRISTOL-MYERS SQUIBB COMPANY, priority 2019, dated 2025).

By pIC50 is commonly meant the IC50 on a negative log10 scale, so that one unit is a factor of ten.

pIC50: −log10 of the molar value.

The target of the assay is T1, human LPA1 (Homo sapiens, UniProt Q92633).
T1 construct: expressed in transfected cells; host or cells: Chinese hamster ovary (CHO) cells
T1 sequence (Q92633 whole entry): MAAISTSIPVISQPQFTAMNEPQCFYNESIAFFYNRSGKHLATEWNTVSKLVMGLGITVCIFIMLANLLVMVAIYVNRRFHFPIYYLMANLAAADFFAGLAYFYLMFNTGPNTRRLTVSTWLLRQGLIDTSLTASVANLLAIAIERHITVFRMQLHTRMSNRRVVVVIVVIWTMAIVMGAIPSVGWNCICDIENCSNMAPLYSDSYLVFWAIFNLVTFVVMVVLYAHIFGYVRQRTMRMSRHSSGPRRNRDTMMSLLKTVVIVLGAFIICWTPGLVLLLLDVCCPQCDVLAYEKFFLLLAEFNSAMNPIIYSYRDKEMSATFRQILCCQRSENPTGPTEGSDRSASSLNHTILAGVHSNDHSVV
Put plainly: LPA1 functional antagonist assay (LPA-induced calcium flux). The class given is cell-based. To be noted: CHO cells overexpressing human LPA1; calcium flux induced by 10 nM LPA; read-out: hLPA1 IC50. Here is the method: The effectiveness of compounds of the present invention as LPA1 inhibitors can be determined in an LPA1 functional antagonist assay as follows:
The cells were then equilibrated to room temperature for 30 minutes before the assay. […] IC50 values were determined by fitting data to a 4-parameter logistic equation (GraphPad Prism, San Diego CA).
For the molecule `Cc1noc(-c2ccc(OC[C@@H]3CC[C@H]3C(=O)O)cc2)c1COC(=O)N(C)C1CCCC1` (racemic) [Example 1, (±)-(1R,2R)-2-((4-(4-(((cyclopentyl(methyl)carbamoyl)oxy)methyl)-3-methylisoxazol-5-yl)phenoxy)methyl)cyclobutane-1-carboxylic acid], the pIC50 was 6.73. `Cc1noc(-c2ccc(OC[C@@H]3CC[C@H]3C(=O)O)cn2)c1CNc1nccc(-c2ccccn2)n1` (racemic) [Example 2, (±)-(1R,2R)-2-(((6-(3-methyl-4-(((4-(pyridin-2-yl)pyrimidin-2-yl)amino)methyl)isoxazol-5-yl)pyridin-3-yl)oxy)methyl)cyclobutane-1-carboxylic acid]: the negative-log IC50 (pIC50) was 7.81.

As for `Cc1nc(-c2onc(C)c2CNc2nccc(-c3ccccn3)n2)ccc1OC[C@@H]1CC[C@H]1C(=O)O` (racemic) [Example 5, (±)-(1R,2R)-2-(((2-methyl-6-(3-methyl-4-(((4-(pyridin-2-yl)pyrimidin-2-yl)amino)methyl)isoxazol-5-yl)pyridin-3-yl)oxy)methyl)cyclobutane-1-carboxylic acid], the pIC50 was 7.74. With `Cc1nc(-c2nnn(C)c2COC(=O)N(C)CC2CCC2)ccc1OC[C@@H]1CC[C@H]1C(=O)O` (racemic) [Example 6, (±)-(1R,2R)-2-(((6-(5-((((cyclobutylmethyl)(methyl)carbamoyl)oxy)methyl)-1-methyl-1H-1,2,3-triazol-4-yl)-2-methylpyridin-3-yl)oxy)methyl)cyclobutane-1-carboxylic acid] the figure was 7.57; with `CCc1cc(OCc2c(-c3ccc(OC[C@@H]4CC[C@H]4C(=O)O)c(C)n3)nnn2C)ncn1` (racemic) [Example 11, (±)-(1R,2R)-2-(((6-(5-(((6-ethylpyrimidin-4-yl)oxy)methyl)-1-methyl-1H-1,2,3-triazol-4-yl)-2-methylpyridin-3-yl)oxy)methyl)cyclobutane-1-carboxylic acid], 7.38; with `CCc1ccnc(OCc2c(-c3ccc(OC[C@@H]4CC[C@H]4C(=O)O)c(C)n3)nnn2C)n1` (racemic) [Example 14, (±)-(1R,2R)-2-(((6-(5-(((4-ethylpyrimidin-2-yl)oxy)methyl)-1-methyl-1H-1,2,3-triazol-4-yl)-2-methylpyridin-3-yl)oxy)methyl)cyclobutane-1-carboxylic acid], 6.42. With `Cc1nc(-c2nnn(C)c2COc2noc(C3CC3)n2)ccc1OC[C@@H]1CC[C@H]1C(=O)O` (racemic) [Example 15, (±)-(1R,2R)-2-(((6-(5-(((5-cyclopropyl-1,2,4-oxadiazol-3-yl)oxy)methyl)-1-methyl-1H-1,2,3-triazol-4-yl)-2-methylpyridin-3-yl)oxy)methyl)cyclobutane-1-carboxylic acid] the figure was 6.89; with `Cc1nc(-c2nnn(C)c2COc2noc(C(C)C)n2)ccc1OC[C@@H]1CC[C@H]1C(=O)O` (racemic) [Example 16, (±)-(1R,2R)-2-(((6-(5-(((5-isopropyl-1,2,4-oxadiazol-3-yl)oxy)methyl)-1-methyl-1H-1,2,3-triazol-4-yl)-2-methylpyridin-3-yl)oxy)methyl)cyclobutane-1-carboxylic acid], 7.60; with `Cc1nc(-c2nnn(C)c2COc2cc(OC3CC3)ncn2)ccc1OC[C@@H]1CC[C@H]1C(=O)O` (racemic) [Example 17, (±)-(1R,2R)-2-(((6-(5-(((6-cyclopropoxy-pyrimidin-4-yl)oxy)methyl)-1-methyl-1H-1,2,3-triazol-4-yl)-2-methylpyridin-3-yl)oxy)methyl)cyclobutane-1-carboxylic acid], 7.18. The figure for `Cc1nc(-c2nnn(C)c2COc2cc(C3CC3)ncn2)ccc1OC[C@@H]1CC[C@H]1C(=O)O` (racemic) [Example 18, (±)-(1R,2R)-2-(((6-(5-(((6-cyclopropyl-pyrimidin-4-yl)oxy)methyl)-1-methyl-1H-1,2,3-triazol-4-yl)-2-methylpyridin-3-yl)oxy)methyl)cyclobutane-1-carboxylic acid] is 7.08; for `COc1cc(OCc2c(-c3ccc(OC[C@@H]4CC[C@H]4C(=O)O)c(C)n3)nnn2C)ncn1` (racemic) [Example 19, (±)-(1R,2R)-2-(((6-(5-(((6-methoxy-pyrimidin-4-yl)oxy)methyl)-1-methyl-1H-1,2,3-triazol-4-yl)-2-methylpyridin-3-yl)oxy)methyl)cyclobutane-1-carboxylic acid] it is 6.92; for `CCOc1ccnc(NCc2c(-c3ccc(OC[C@@H]4CC[C@H]4C(=O)O)c(C)n3)nnn2C)n1` (racemic) [Example 21, (±)-(1R,2R)-2-(((6-(5-(((4-ethoxy-pyrimidin-2-yl)amino)methyl)-1-methyl-1H-1,2,3-triazol-4-yl)-2-methylpyridin-3-yl)oxy)methyl)cyclobutane-1-carboxylic acid] it is 7.62. Regarding `Cc1nc(-c2nnn(C)c2CNc2nccc(Oc3ccccc3)n2)ccc1OC[C@@H]1CC[C@H]1C(=O)O` (racemic) [Example 22, (±)-(1R,2R)-2-(((2-methyl-6-(1-methyl-5-(((4-phenoxypyrimidin-2-yl)amino)methyl)-1H-1,2,3-triazol-4-yl)pyridin-3-yl)oxy)methyl)cyclobutane-1-carboxylic acid], the pIC50 was 6.83. With `Cc1nc(-c2nnn(C)c2CNc2nccc(C(C)C)n2)ccc1OC[C@@H]1CC[C@H]1C(=O)O` (racemic) [Example 23, (±)-(1R,2R)-2-(((6-(5-(((4-isopropyl-pyrimidin-2-yl)amino)methyl)-1-methyl-1H-1,2,3-triazol-4-yl)-2-methylpyridin-3-yl)oxy)methyl)cyclobutane-1-carboxylic acid] the figure was 6.93. With `Cc1nc(-c2nnn(C)c2CNc2nccc(-c3ccccn3)n2)ccc1OC[C@@H]1CC[C@H]1C(=O)O` (racemic) [Example 26, (±)-(1R,2R)-2-(((2-methyl-6-(1-methyl-5-(((4-(pyridin-2-yl)pyrimidin-2-yl)amino)methyl)-1H-1,2,3-triazol-4-yl)pyridin-3-yl)oxy)methyl)cyclobutane-1-carboxylic acid] the figure was 7.25; with `Cn1nnc(-c2ccc(OC[C@@H]3CC[C@H]3C(=O)O)cn2)c1CNc1nccc(-c2ccccn2)n1` (racemic) [Example 27, (±)-(1R,2R)-2-(((6-(1-methyl-5-(((4-(pyridin-2-yl)pyrimidin-2-yl)amino)methyl)-1H-1,2,3-triazol-4-yl)pyridin-3-yl)oxy)methyl)cyclobutane-1-carboxylic acid], 7.31. On to `Cc1nc(-c2nnn(C)c2COC(=O)N(C)CC2CC2)ccc1OC[C@@H]1CC[C@H]1C(=O)O` (racemic) [Example 31, (±)-(1R,2R)-2-(((6-(5-((((Cyclopropylmethyl)(methyl)carbamoyl)oxy)methyl)-1-methyl-1H-1,2,3-triazol-4-yl)-2-methylpyridin-3-yl)oxy)methyl) cyclobutanecarboxylic acid], for which the pIC50 is 6.74. With `Cc1nc(-c2nnn(C)c2CNC(=O)OCc2ccccc2)ccc1OC[C@@H]1CC[C@H]1C(=O)O` (racemic) [Example 32, (±)-(1R,2R)-2-(((6-(5-((((Benzyloxy)carbonyl)amino)methyl)-1-methyl-1H-1,2,3-triazol-4-yl)-2-methylpyridin-3-yl)oxy)methyl)cyclobutanecarboxylic acid] the figure was 7.15; with `Cc1nc(-c2nnn(C)c2CNC(=O)OCCC2CC2)ccc1OC[C@@H]1CC[C@H]1C(=O)O` (racemic) [Example 33, (±)-(1R,2R)-2-(((6-(5-((((2-Cyclopropylethoxy)carbonyl)amino)methyl)-1-methyl-1H-1,2,3-triazol-4-yl)-2-methylpyridin-3-yl)oxy)methyl)cyclobutanecarboxylic acid], 6.49.

`Cc1nc(-c2nnn(C)c2NC(=O)OCC(C)C)ccc1OC[C@@H]1CC[C@H]1C(=O)O` (racemic) [Example 34, (±)-(1R,2R)-2-(((6-(5-((Isobutoxycarbonyl)amino)-1-methyl-1H-1,2,3-triazol-4-yl)-2-methylpyridin-3-yl)oxy)methyl)cyclobutane-1-carboxylic acid]: the pIC50 was 5.92. Consider `Cc1nc(-c2nnn(C)c2CNc2nccc(-c3ccccc3)n2)ccc1OC[C@@H]1CC[C@H]1C(=O)O` (racemic) [Example 35, (±)-(1R,2R)-2-(((2-Methyl-6-(1-methyl-5-(((4-phenylpyrimidin-2-yl)amino)methyl)-1H-1,2,3-triazol-4-yl)pyridin-3-yl)oxy)methyl)cyclobutanecarboxylic acid], for which the pIC50 was 7.31.

`Cc1nc(-c2nnn(C)c2Cn2nnc(CC3CC3)n2)ccc1OC[C@@H]1CC[C@H]1C(=O)O` (racemic) [Example 36, (±)-(1R,2R)-2-(((6-(5-((5-(Cyclopropylmethyl)-2H-tetrazol-2-yl)methyl)-1-methyl-1H-1,2,3-triazol-4-yl)-2-methylpyridin-3-yl)oxy)methyl)cyclobutane-1-carboxylic acid]: the pIC50 was 7.07.

As for `Cc1nc(-c2nnn(C)c2Cn2nnnc2CC2CC2)ccc1OC[C@@H]1CC[C@H]1C(=O)O` (racemic) [Example 37, (±)-(1R,2R)-2-(((6-(5-((5-(Cyclopropylmethyl)-1H-tetrazol-1-yl)methyl)-1-methyl-1H-1,2,3-triazol-4-yl)-2-methylpyridin-3-yl)oxy)methyl)cyclobutane-1-carboxylic acid], the pIC50 was 6.57. `Cc1nc(-c2nnn(C)c2CNc2ncc(-c3ccccn3)o2)ccc1OC[C@@H]1CC[C@H]1C(=O)O` (racemic) [Example 40, (±)-(1R,2R)-2-(((2-methyl-6-(1-methyl-5-(((5-(pyridin-2-yl)oxazol-2-yl)amino)methyl)-1H-1,2,3-triazol-4-yl)pyridin-3-yl)oxy)methyl)cyclobutanecarboxylic acid]: the pIC50 is 6.28.
